The record followed here is ChEMBL document CHEMBL3853285, “Naturally Occurring Carbazole Alkaloids from Murraya koenigii as Potential Antidiabetic Agents” (J Nat Prod, 2016).

For series [1], the system named is Mus musculus. The series can be described thus: Antidiabetic activity in leptin receptor deficient db/db C57BL/KSJ mouse assessed as decrease in postprandial blood glucose level at 10 mg/kg, po for 15 consecutive days measured on day 7 to 14 post dose. Type of series: functional, organism-based.
Series [2] relates to Mus musculus. Nature of the series: Reversal of insulin resistance in leptin receptor deficient db/db C57BL/KSJ mouse assessed as improvement in HOMA index administered for 15 consecutive days relative to control. In kind it is functional.
The subject of series [3] is Mus musculus. Nature of the series: Antidiabetic activity in leptin receptor deficient db/db C57BL/KSJ mouse assessed as decrease in fasting blood glucose level administered for 15 consecutive days relative to control. Type of series: functional.
The subject of series [4] is Mus musculus. Nature of the series: Antidiabetic activity in overnight fasted leptin receptor deficient db/db C57BL/KSJ mouse assessed as reduction in postprandial blood glucose AUC at 10 mg/kg, po administered on day 10 post glucose challenge measured up to 120 mins by oral glucose tolerance test relative to control. Type of series: functional.
For series [5], the system named is Mus musculus. The series can be described thus: Reversal of insulin resistance in leptin receptor deficient db/db C57BL/KSJ mouse assessed as decrease in serum insulin level administered for 15 consecutive days relative to control. In kind it is functional.
In series [6] the test system is Mus musculus. Nature of the series: Antidiabetic activity in overnight fasted leptin receptor deficient db/db C57BL/KSJ mouse assessed as reduction in postprandial blood glucose AUC at 10 mg/kg, po administered on day 15 post glucose challenge measured up to 120 mins by oral glucose tolerance test relative to control. Type of series: functional.
The nature of series [7]: AUC (0 to infinity) in Sprague-Dawley rat plasma at 100 mg/kg, po administered as single dose measured up to 48 hrs post dose by LC-MS/MS analysis. Type of series: ADME, organism-based. Also noted: dose 100 mg/kg, route oral, time infinity.
The nature of series [8]: Metabolic stability in rat liver microsomes assessed as parent compound remaining after 90 mins in presence of NADPH by HPLC analysis. In kind it is ADME. The following applies: for remaining at 1.5 h: liver microsomes, read-out: Stability. In general terms: Liver microsomes are vesicles of endoplasmic reticulum, rich in cytochrome P450 enzymes.
Series [9] is described as follows: Activation of Akt-dependent signalling pathway in rat L6 myotubes assessed as increase in myc-tagged GLUT4-mediated 2-[3H]-deoxyglucose uptake at 25 uM incubated for 16 hrs measured for 5 mins by beta scintillation counting relative to control.
Series [10] relates to Rattus norvegicus. The series can be described thus: Antidiabetic activity in overnight fasted STZ-induced albino Sprague-Dawley rat diabetic model assessed as decrease in blood glucose level at 100 mg/kg, po measured up to 5 hrs. In kind it is functional.
The nature of series [11]: Activation of Akt-dependent signalling pathway in rat L6 myotubes assessed as increase in myc-tagged GLUT4-mediated 2-[3H]-deoxyglucose uptake incubated for 16 hrs measured for 5 mins by beta scintillation counting.
Series [12] is described as follows: Metabolic stability in rat liver microsomes assessed as drug degradation rate constant incubated for 90 mins by HPLC analysis. Type of series: ADME. The following applies: 1.5 h.
The nature of series [13]: Half life in rat liver microsomes in presence of NADPH by HPLC analysis. Type of series: ADME. The following applies: for half-life: liver microsomes.
Series [14] in a line: Activation of Akt-dependent signalling pathway in rat L6 myotubes assessed as induction of myc-tagged GLUT4 translocation to cell surface at 25 uM incubated for 16 hrs by O-phenylenediamide based colorimetric assay relative to control.
Series [15] can be described thus: Tmax in Sprague-Dawley rat plasma at 100 mg/kg, po administered as single dose by LC-MS/MS analysis. In kind it is ADME, organism-based.
The nature of series [16]: Activation of Akt-dependent signalling pathway in rat L6 myotubes assessed as increase in insulin-stimulated myc-tagged GLUT4-mediated 2-[3H]-deoxyglucose uptake at 25 uM incubated for 16 hrs followed by insulin stimulation for 20 mins measured for 5 mins by beta scintillation counting method relative to control.
A short description of series [17]: Cmax in Sprague-Dawley rat plasma at 100 mg/kg, po administered as single dose measured up to 48 hrs post dose by LC-MS/MS analysis. In kind it is ADME, organism-based. Also noted: dose 100 mg/kg, route oral.
For series [18], the system named is Rattus norvegicus. The series can be described thus: Antidiabetic activity in overnight fasted STZ-induced albino Sprague-Dawley rat diabetic model assessed as decrease in blood glucose level at 100 mg/kg, po measured up to 24 hrs. In kind it is functional.
The subject of series [19] is Mus musculus. Nature of the series: Antidiabetic activity in overnight fasted leptin receptor deficient db/db C57BL/KSJ mouse assessed as reduction in postprandial blood glucose AUC at 30 mg/kg, po administered on day 10 post glucose challenge measured up to 120 mins by oral glucose tolerance test relative to control. Type of series: functional.
The subject of series [20] is Mus musculus. Nature of the series: Antidiabetic activity in overnight fasted leptin receptor deficient db/db C57BL/KSJ mouse assessed as reduction in postprandial blood glucose AUC at 30 mg/kg, po administered on day 15 post glucose challenge measured up to 120 mins by oral glucose tolerance test relative to control. In kind it is functional.
For series [21], the species on record is Rattus norvegicus. The series can be described thus: Induction of Akt phosphorylation at Ser-473 residue in rat L6 myotubes over-expressing myc-tagged GLUT4 at 50 uM incubated for 16 hrs followed by insulin stimulation for 20 mins by Western blot analysis. (Immunoblotting shows a protein as a band on a membrane.)
Series [22] is filed under the species Rattus norvegicus. The series can be described thus: Induction of Akt phosphorylation at Ser-473 residue in rat L6 myotubes over-expressing myc-tagged GLUT4 at 25 uM incubated for 16 hrs by Western blot analysis.
Series [23] concerns Mus musculus. The series can be described thus: Antidiabetic activity in leptin receptor deficient db/db C57BL/KSJ mouse assessed as decrease in postprandial blood glucose level at 30 mg/kg, po for 15 consecutive days measured on day 8 post dose. Type of series: functional, organism-based.
Series [24] in a line: Activation of Akt-dependent signaling pathway in rat L6 myotubes assessed as increase in myc-tagged GLUT4-mediated 2-[3H]-deoxyglucose uptake at 10 uM incubated for 16 hrs measured for 5 mins by beta scintillation counting method relative to control.
Series [25] can be described thus: Activation of Akt-dependent signalling pathway in rat L6 myotubes assessed as induction of myc-tagged GLUT4 translocation to cell surface at 10 uM incubated for 16 hrs by O-phenylenediamide based colorimetric assay relative to control.

As usually defined, the inhibition in vivo is the relative decrease from the control value, in per cent. As usually defined, the AUC(0-inf) is the area under the concentration-time curve extrapolated to infinity. Higher therefore signals high exposure. The term half-life denotes the time needed for the level to fall by half in the phase considered. What is called Tmax is the time at which the peak concentration occurs. A word on the Cmax: it is the highest concentration seen after dosing.

Active and inactive are the calls of the source.

As to `CCc1ccc(CCOc2ccc(CC3SC(=O)NC3=O)cc2)nc1` (configuration not stated) [PIOGLITAZONE], the inhibition entry in the series with Mus musculus [1] is “Active”. Moreover, the Activity in the series on Mus musculus [2] amounted to 74.6%. The entries for the “inhibition (INH)” value in the series on Mus musculus [3] and in the series with Mus musculus [5] were 62.4% and 32.3%, respectively. The inhibition in vivo at 10 mg/kg with Mus musculus [4] was determined as 30.2%; with Mus musculus [6], 41.4%.
For the molecule `COc1ccc2[nH]c3c4c(c(C)cc3c2c1)OC(C)(C)C=C4` [KOENIMBINE], the AUC(0-inf) in series [7] worked out at 9.45 µM·h. The remaining at 1.5 h in series [8] came to 58%. Also, the fold change (FC) in series [9] amounted to 1.41; in series [14] it was 1.44; in [16] it was 2.54. Moreover, the inhibition in vivo at 100 mg/kg with Rattus norvegicus [10] is 15.5%; with Rattus norvegicus [18], 19.8%. Besides, the Activity entry in series [11] was “Dose-dependent effect”. The K in [12] worked out at 0.005 min⁻¹. Also, the half-life in [13] came to 2.21 h. The Tmax in [15] was 0.83 h. In [17], this molecule registered a Cmax of 1810 nM.
In series [7], `COc1cc2[nH]c3c4c(c(C)cc3c2cc1OC)OC(C)(C)C=C4` showed an AUC(0-inf) of 23 µM·h. For the same molecule, the inhibition in vivo at 30 mg/kg turned out to be 21.8% in the series on Mus musculus [19] and 28.5% with Mus musculus [20]. Besides, in series [8], the remaining at 1.5 h stood at 79%. The figures for the fold change (FC) in series [9], in series [14] and in series [16] were 1.42, 1.29 and 2.41, respectively. Besides, the result in the series listed under Rattus norvegicus [21] and in the series listed under Rattus norvegicus [22] was Active. Also, the inhibition in vivo at 100 mg/kg came out at 22.5% in the series with Rattus norvegicus [10] and 30% in the series with Rattus norvegicus [18]. Also, the Activity in the series with Mus musculus [2] was 44.3%; in [11], “Dose-dependent effect”. Further, the “inhibition (INH)” value in the series with Mus musculus [3] is 40.5%; in the series with Mus musculus [5] it was 17.2%. Besides, in series [12], the K was found to be 0.003 min⁻¹. The half-life in [13] turned out to be 3.11 h. In series [15], the time to peak (Tmax) was 4 h. For the same molecule, the inhibition result in the series on Mus musculus [23] is “Active”. The molecule further had a Cmax in series [17] of 2820 nM.
As for `CN(CCOc1ccc(CC2SC(=O)NC2=O)cc1)c1ccccn1` (configuration not stated), the fold change (FC) in [24] stood at 1.45; in series [16], 2.75; in series [25], 1.38. Moreover, in series [11], the Activity result is “Dose-dependent effect”.
As for `COc1ccc2c(c1)[nH]c1c3c(c(C)cc12)OC(C)(C)C=C3`, in series [8], the remaining at 1.5 h came out at 67%. In addition, the figures for the fold change (FC) in series [9], in series [14] and in series [16] were 1.34, 1.33 and 2.7, respectively. The inhibition in vivo at 100 mg/kg is 24.6% in the series with Rattus norvegicus [10] and 30.3% in the series with Rattus norvegicus [18]. The Activity entry in series [11] is “Dose-dependent effect”. The K in series [12] was 0.004 min⁻¹. The half-life in series [13] stood at 2.83 h.
Take `CN(C)C(=N)NC(=N)N` [METFORMIN]: the inhibition in vivo at 100 mg/kg in the series with Rattus norvegicus [10] was 25.9%; in the series with Rattus norvegicus [18], 36%.
Turning to `CC(C)=CCC[C@]1(C)C=Cc2c(c(C)cc3c2[nH]c2ccccc23)O1`, the Stability in [8] (microsomes, 1.5 h) was determined as 61%. Moreover, the fold change (FC) is 1.26 in [9], 1.41 in series [14] and 2.68 in series [16]. In addition, the inhibition in vivo at 100 mg/kg in the series on Rattus norvegicus [10] worked out at 19.3%; in the series with Rattus norvegicus [18], 23.3%. Besides, the Activity result in series [11] was “Dose-dependent effect”. For the same molecule, the K in [12] came to 0.088 min⁻¹. In addition, the t1/2 in series [13] (microsomes) is given as 7.8 min.
